In the supplement of paper PMC4862054:

Assays:
Assay in all cases: normalised viability (% of control), CellTiter-Blue; higher = more viable cells (about 100 = DMSO control)
Conditions in all cases: incubation time: 72 h
[1] = system: MDA-MB-453
Experimental: (§1)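 DSRT, CellTiter-Blue viability, 72 h incubation. Signal is normalised to DMSO and benzethonium chloride controls. Value is the normalised response at dose 7.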

[2] = system: CAL-148
Experimental: as §1

[3] = system: CAL-85-1
Experimental: as §1

[4] = system: DU-4475
Experimental: as §1

[5] = system: HDQ-P1
Experimental: as §1

[6] = system: CAL-51
Experimental: as §1

[7] = system: MDA-MB-453; remark: listed apart in the source
Experimental: (§2)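 DSRT, CellTiter-Blue viability, 72 h incubation. Signal is normalised to DMSO and benzethonium chloride controls. Value is the normalised response at dose 9.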

[8] = system: CAL-148; remark: listed apart in the source
Experimental: as §2

[9] = system: CAL-85-1; remark: listed apart in the source
Experimental: as §2

[10] = system: DU-4475; remark: listed apart in the source
Experimental: as §2

[11] = system: HDQ-P1; remark: listed apart in the source
Experimental: as §2

[12] = system: CAL-51; remark: listed apart in the source
Experimental: as §2

[13] = system: SK-BR-3
Method in brief: (§3)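 Plates were quality-checked by Z'-factor and normalised to vehicle (100) and a positive kill control (0). The underlying assay incubated breast cancer cell lines for 72 h on 384-well plates with compound, then added 2.5 µl CellTiter-Blue for 2 h at 37 °C and read at 560/590 nm. The value is normalised viability at a single listed concentration of the series.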

[14] = system: HCC1937
Method in brief: as §3

[15] = system: HCC1599
Method in brief: as §3

[16] = system: MDA-MB-468
Method in brief: as §3

[17] = system: MDA-MB-453; remark: listed apart in the source
Method in brief: as §3

[18] = system: MDA-MB-231
Method in brief: as §3

[19] = system: CAL-148; remark: listed apart in the source
Method in brief: as §3

[20] = system: CAL-85-1; remark: listed apart in the source
Method in brief: as §3

[21] = system: DU-4475; remark: listed apart in the source
Method in brief: as §3

[22] = system: HCC1143
Method in brief: as §3

[23] = system: HDQ-P1; remark: listed apart in the source
Method in brief: as §3

[24] = system: Hs578T
Method in brief: as §3

[25] = system: CAL-120
Method in brief: as §3

[26] = system: MFM-223
Method in brief: as §3

[27] = system: BT-549
Method in brief: as §3

[28] = system: CAL-51; remark: listed apart in the source
Method in brief: as §3

[29] = system: BT-474
Method in brief: as §3

[30] = system: CAL-148; remark: listed apart in the source
Experimental: (§4)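 DSRT, CellTiter-Blue viability, 72 h incubation. Signal is normalised to DMSO and benzethonium chloride controls. Value is the normalised response at dose 8.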

[31] = system: CAL-85-1; remark: listed apart in the source
Experimental: as §4

[32] = system: DU-4475; remark: listed apart in the source
Experimental: as §4

C[C@]12CC[C@H](O)CC1=CC[C@@H]1[C@@H]2CC[C@]2(C)C(c3cccnc3)=CC[C@@H]12 [Abiraterone]
normalised viability ([1]; 500 nM): 92.3%
normalised viability ([2]; 500 nM): 94.7%
normalised viability ([3]; 500 nM): 77.2%
normalised viability ([4]; 500 nM): 94.2%
normalised viability ([5]; 500 nM): 112%
normalised viability ([6]; 500 nM): 103%
normalised viability ([7]; 5000 nM): 89.2%
normalised viability ([8]; 5000 nM): 92.1%
normalised viability ([9]; 5000 nM): 82.1%
normalised viability ([10]; 5000 nM): 93.3%
normalised viability ([11]; 5000 nM): 113%
normalised viability ([12]; 5000 nM): 92%
normalised viability ([13]; 500 nM): 101%
normalised viability ([14]; 500 nM): 83%
normalised viability ([15]; 500 nM): 385%
normalised viability ([16]; 500 nM): 106%
normalised viability ([17]; 15 nM): 110%
normalised viability ([18]; 500 nM): 106%
normalised viability ([19]; 15 nM): 84.2%
normalised viability ([20]; 15 nM): 80.5%
normalised viability ([21]; 15 nM): 80.8%
normalised viability ([22]; 500 nM): 80.2%
normalised viability ([23]; 15 nM): 108%
normalised viability ([24]; 500 nM): 116%
normalised viability ([25]; 500 nM): 81.4%
normalised viability ([26]; 500 nM): 96.6%
normalised viability ([27]; 500 nM): 111%
normalised viability ([28]; 15 nM): 107%
normalised viability ([29]; 500 nM): 116%
normalised viability ([30]; 1500 nM): 98.1%
normalised viability ([31]; 1500 nM): 97.5%
normalised viability ([32]; 1500 nM): 88.1%

Cn1c(=O)n(-c2ccc(C(C)(C)C#N)cc2)c2c3cc(-c4cnc5ccccc5c4)ccc3ncc21 [NVP-BEZ235]
normalised viability ([1]; 100 nM): 16.8%
normalised viability ([2]; 100 nM): 16.1%
normalised viability ([3]; 100 nM): 31.4%
normalised viability ([4]; 100 nM): 37.2%
normalised viability ([5]; 100 nM): 38.3%
normalised viability ([6]; 100 nM): 22.3%
normalised viability ([7]; 1000 nM): 13.8%
normalised viability ([8]; 1000 nM): 0.2%
normalised viability ([9]; 1000 nM): 27.7%
normalised viability ([10]; 1000 nM): 5.52%
normalised viability ([11]; 1000 nM): 34%
normalised viability ([12]; 1000 nM): 8.61%
normalised viability ([13]; 100 nM): 21.9%
normalised viability ([14]; 100 nM): 47.4%
normalised viability ([15]; 100 nM): 64.8%
normalised viability ([16]; 100 nM): 37%
normalised viability ([17]; 3 nM): 87.9%
normalised viability ([18]; 100 nM): 26.8%
normalised viability ([19]; 3 nM): 93%
normalised viability ([20]; 3 nM): 84.5%
normalised viability ([21]; 3 nM): 107%
normalised viability ([22]; 100 nM): 37.9%
normalised viability ([23]; 3 nM): 94.5%
normalised viability ([24]; 100 nM): 32.5%
normalised viability ([25]; 100 nM): 17.6%
normalised viability ([26]; 100 nM): 24.5%
normalised viability ([27]; 100 nM): 21.7%
normalised viability ([28]; 3 nM): 84.7%
normalised viability ([29]; 100 nM): 42.9%
normalised viability ([30]; 300 nM): 10.7%
normalised viability ([31]; 300 nM): 29.5%
normalised viability ([32]; 300 nM): 15.8%
